In ChEMBL document CHEMBL3272158, “2-Azabicyclo (2.2.2)octane analogues of the prodine analgetics” (J Med Chem, 1976):
Calls of active or inactive are those of the source. The rule behind the calls is not given here.

What was measured:
Rattus norvegicus [1] = experiment: Analgetic activity in albino rat at 100 mg/kg, ip measured 15 mins interval by tail-flick method; type: functional, organism-based; design: dose 100 mg/kg
Rattus norvegicus [2] = experiment: Analgetic activity in ip dosed albino rat measured 15 mins interval by tail-flick method; type: functional; settings: 0.25 h
[3] = Toxicity in ip dosed albino rat; type: organism-based; settings: in vivo

For CCC(=O)O[C@@]1(c2ccccc2)C[C@H]2CC[C@H]1CN2C, the Activity (Rattus norvegicus [1]) was “inactive”.
Compound CCC(=O)OC1(c2ccccc2)CCN(C)CC1C (racemic) [ALPHAPRODINE] has an ED50 (Rattus norvegicus [2]) of 1.4 mg/kg and an LD50 [3] of 22 mg/kg.
For CCC(=O)O[C@@]1(c2ccccc2)C[C@H]2CC[C@H]1N(C)C2 (relative stereo), the ED50 (Rattus norvegicus [2]) was 3.1 mg/kg, the LD50 [3] was 12.3 mg/kg and the Activity (Rattus norvegicus [1]) was “inactive”.
With CCC(=O)O[C@@]1(c2ccccc2)C[C@H]2CC[C@H]1N(Cc1ccccc1)C2 (relative stereo) the Activity (Rattus norvegicus [1]) was “inactive”.
In the case of CCC(=O)O[C@]1(c2ccccc2)C[C@H]2CC[C@H]1N(C)C2 (relative stereo), the Activity (Rattus norvegicus [1]) was “inactive”.
